Results reported in patent publication US12194021B2, “Modified herbal compositions for neuromodulation” (University of Southern California, priority 2021, dated 2025).
Marks after values point to notes of the source that are not given here.

Experiments:
[1] = Anecdotal test of effects on sleep
Procedure: We did an Anecdotal Test of the Effects of DHM on Sleep. […] They were given combination-formula (Comb-D, 1 serving size), DHM (250 mg), or melatonin (10 mg). After a week, we started collecting their reported sleep duration.

GABAARs = assay: Whole-cell voltage-clamped recordings from hippocampal DGCs in slices (Itonic, mIPSCs); assay type: cell-based, rats; conditions: for GABAergic Itonic: basal Itonic 20 pA
From the text: 2) Whole-Cell Patch-Clamp Recordings from Brain Slices. Transverse slices (400 lm) of dorsal hippocampus were obtained from wt and TG-SwDI mice (male, 20 months old) using a vibratome (VT 100; Technical Products International). Slices were perfused continuously with artificial CSF (ACSF) composed of the following (in mM): 125 NaCl, 2.5 KCl, 2 CaCl2, 2 MgCl2, 26 NaHCO3, and 10 D-glucose. The ACSF was bubbled continuously with 95% O2/5% CO2 to ensure adequate oxygenation of slices and a pH of 7.4 and kept at 34±0.5° C. for perfusion. TTX (0.5 μM), APV (40 μM), CNQX (10 μM), and CGP54626 (1 μM, GABABR antagonist) were added to ACSF to pharmacologically isolate GABAAR-mediated mIPSCs. Patch electrodes were filled with internal solution containing the following (in mM): 137 CsCl, 2 MgCl2, 1 CaCl2, 11 EGTA, 10 HEPES, and 3 ATP, pH adjusted to 7.30 with CsOH. Recordings targeted dentate gyms granule cells (DGCs) of hippocampal slices. Voltage-clamp whole-cell recording was performed using a patch clamp amplifier 3) EPM: All animals were tested anxiety levels on EPM. Animals were placed on the central area of the maze, tested for 5 min and video recorded. The following measures were scored: number of entries into open arms, closed arms, or center platform and time spent in each of these areas. Data were reported as % of number of entries in arms, % of time spent in different entries, and number of total entries.
To evaluate whether DHM-Piperidine Complex (D-P) can still potentiate GABAARs, whole-cell voltage-clamped recordings from hippocampal DGCs in slices were performed to test D-P and compared with DHM effects on GABAergic tonic current (Itonic) and miniature inhibitory postsynaptic currents (mIPSCs). […] Compared with DHM enhancing GABAergic Itonic from 20 pA (basal Itonic)→28 pA→31 pA→52 pA→55 pA, D-P enhancing GABAergic Itonic from 20 pA (basal Itonic)→35 pA→42 pA →65 pA→70 pA (Table 1).

gephyrin = conditions: previously reported (Liang et al., 2014); cited from earlier work
mice = assay: Elevated plus maze (EPM), anxiolytic effect of combination form; assay type: in vivo; conditions: 45 min after oral administration, comb 0.5, 1, 2 serving size, diazepam 2 mg/kg
Procedure: Alternatively, the elevated plus maze for mice can consist of two opposing open (24×8 cm) and two enclosed arms (24×8×25 cm) connected by a central platform forming the shape of a plus sign. The dimensions of the central field which connects the open and closed arms are 8×8 cm. The plus maze was elevated to a height of 50 cm. Each mouse was immediately placed in the central square of the apparatus with the head facing one of the closed arms. Mice behavior during 5 min was observed and recorded by means of a video camera (Canon Digital, Japan), which was fixed to the wall above the elevated plus maze. In this test, the following parameters were detected and calculated: the number of entries (open arm entries and closed arm entries), % of open arm entries, and % of time spent in open arms.
Anxiolytic effect evaluation of combination form (comb). A characteristic of the anxiolytic effects of comb (0.5, 1, and 2 serving size) was evaluated by elevated plus maze (EPM) tests (Table 3; FIG. 6). The EPM is considered an etiologically valid assessment of anxiolytic/anxiety in rodents because it uses natural stimuli (fear of a novel, brightly lit open space, and fear of balancing on a relatively narrow, raised platform) to determine anxiety-like behavior in animals. Anxiolytics are known to exert their pharmacological action by causing an increase in GABAergic neurotransmission in the brain.
Statistical analysis: one-way ANOVA, followed by Holm-Sidak post hoc comparison. […] Data were expressed as the means ±SEM, (n=7/group) percentage of open arm entries or of time spent on open arms in mice given a 5-min test, 45 min after oral administration of comb (0.5, 1, 2 serving size), or vehicle.

SMILES: O=C1c2c(O)cc(O)cc2O[C@H](c2cc(O)c(O)c(O)c2)[C@H]1O [DHM, dihydromyricetin, reference compound]
- sleep duration (average) ([1]; 250 mg oral daily): 5.5±0.65
- start of improvement of sleep ([1]; 250 mg oral daily): 1 to 7 days
- dependence after finishing three-month test [1]: without dependence
- Itonic, percent in brackets (increase over basal) (GABAARs; 0.1 μM): (40%)*
- mIPSCs (area potentiated) (GABAARs; 0.1 μM): 5.0%
- GABAergic Itonic (GABAARs; 0.1 μM): 28 pA
- Itonic, percent in brackets (increase over basal) (GABAARs; 0.3 μM): (55%)*
- mIPSCs (area potentiated) (GABAARs; 0.3 μM): 13.3%*
- GABAergic Itonic (GABAARs; 0.3 μM): 31 pA
- Itonic, percent in brackets (increase over basal) (GABAARs; 1 μM): (160%)*
- mIPSCs (area potentiated) (GABAARs; 1 μM): 58.3%*
- GABAergic Itonic (GABAARs; 1 μM): 52 pA
- Itonic, percent in brackets (increase over basal) (GABAARs; 10 μM): (175%)*
- mIPSCs (area potentiated) (GABAARs; 10 μM): 53.3%*
- GABAergic Itonic (GABAARs; 10 μM): 55 pA
- GABAergic inhibitory transmission / gephyrin in TG mouse models (gephyrin): restores impaired GABAergic inhibitory transmission

SMILES: CN1C(=O)CN=C(c2ccccc2)c2cc(Cl)ccc21 [diazepam]
- number of closed arm entries (mice): little effect
- total number of arm entries (mice): significantly increased
- percentage of open arm entries (mice; p<0.01): significantly elevated

SMILES: COc1ccc2[nH]cc(CCNC(C)=O)c2c1 [melatonin]
- complaints (discomfort) ([1]; 10 mg oral daily): dizziness on the second day, loss of energy, and other feelings of discomfort
- time to show improvement in sleep ([1]; 10 mg oral daily): took a month
- sleep duration (average) ([1]; 10 mg oral daily, in 40% attendees): 4.3 ± 0.9 h
- dependence after finishing three-month test [1]: suffered withdrawal from the test
